Results published in Sander's compilation of Henry's law constants (doi:10.1021/j100876a049).

Experiment: Henry solubility constant Hcp at 298.15 K (mol/(m3 Pa))
Details: reference: McAuliffe (1966)

Row | SMILES | Henry solubility constant Hcp
1 | C=CCC [1-butene] | 4e-05
2 | C#CCC [1-butyne] | 0.00054
3 | CC(C)C [2-methylpropane] | 8.5e-06
4 | C=C(C)C [2-methylpropene] | 4.8e-05

Now from value to compound:

Row | Henry solubility constant Hcp | SMILES
5 | 1.9e-05 | C=CC(C)C [3-methyl-1-butene]
6 | 1.1e-05 | CCCC [butane]
7 | 4.7e-06 | CC(C)(C)C [dimethylpropane]
8 | 4.7e-05 | C=C [ethene]
9 | 4.8e-05 | C=CC [propene]
10 | 0.00092 | C#CC [propyne]
